These results are taken from the supplement of paper PMC10307832.

What all share (experiment): relative viability (nuclei count vs DMSO), 5 days (fraction); higher = more cells survive
Compound in the assay “AZD6482 + Trametinib”: Cc1cc([C@@H](C)Nc2ccccc2C(=O)O)c2nc(N3CCOCC3)cc(=O)n2c1 [AZD6482] + CC(=O)Nc1cccc(-n2c(=O)n(C3CC3)c(=O)c3c(Nc4ccc(I)cc4F)n(C)c(=O)c(C)c32)c1 [Trametinib] (partner 0.02 µM)
A digest of the protocol: (§1)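 Relative viability equals treated-well nuclei counts divided by vehicle-well nuclei counts. Counts came from 4× images of lung cancer cell lines grown in 1536-well plates for 5 days after pin-tool dosing on the day after seeding. Dosing used one drug alone or a fixed anchor-drug dose plus five library-drug doses (not always all listed) in √10 steps, and values are medians of duplicate plates.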

Compound in the assay “AZD6482 + OSI-027”: Cc1cc([C@@H](C)Nc2ccccc2C(=O)O)c2nc(N3CCOCC3)cc(=O)n2c1 [AZD6482] + COc1cccc2cc(-c3nc([C@H]4CC[C@H](C(=O)O)CC4)n4ncnc(N)c34)[nH]c12 [OSI-027] (partner 0.5 µM)
The gist of the method: as §1

Compound in the assay “AZD6482 + Navitoclax”: Cc1cc([C@@H](C)Nc2ccccc2C(=O)O)c2nc(N3CCOCC3)cc(=O)n2c1 [AZD6482] + CC1(C)CCC(c2ccc(Cl)cc2)=C(CN2CCN(c3ccc(C(=O)NS(=O)(=O)c4ccc(N[C@H](CCN5CCOCC5)CSc5ccccc5)c(S(=O)(=O)C(F)(F)F)c4)cc3)CC2)C1 [Navitoclax] (partner 0.5 µM)
The gist of the method:
as §1

Compound in assay [1]: COc1cc2nc(N3CCCN(C)CC3)nc(NC3CCN(Cc4ccccc4)CC3)c2cc1OC + Cc1nc(Nc2ncc(C(=O)Nc3c(C)cccc3Cl)s2)cc(N2CCN(CCO)CC2)n1 [Dasatinib] (partner 0.075 µM)
The gist of the method: as §1

For UMC-11, the relative viability was found to be 0.681 with AZD6482 + Trametinib (first compound 0.08 µM); 0.659 with AZD6482 + Trametinib (first compound 0.253 µM); 0.705 with AZD6482 + Trametinib (first compound 0.8 µM); 0.571 in the assay with AZD6482 + Trametinib (first compound 2.53 µM); 0.9 with AZD6482 + Trametinib (first compound 8 µM); 0.448 with AZD6482 + OSI-027 (first compound 0.08 µM). For the same cell line, the relative viability with AZD6482 + OSI-027 (first compound 0.253 µM) amounted to 0.464; with AZD6482 + OSI-027 (first compound 0.8 µM) it was 0.497; with AZD6482 + OSI-027 (first compound 2.53 µM) it was 0.459; with AZD6482 + OSI-027 (first compound 8 µM), 0.47; in the assay with AZD6482 + Navitoclax (first compound 0.08 µM), 0.331; with AZD6482 + Navitoclax (first compound 0.253 µM) it was 0.329. For the same cell line, the relative viability with AZD6482 + Navitoclax (first compound 0.8 µM) came out at 0.313; with AZD6482 + Navitoclax (first compound 2.53 µM), 0.309; with AZD6482 + Navitoclax (first compound 8 µM), 0.275; in assay [1] (first compound 0.2 µM), 0.464; in assay [1] (first compound 0.6325 µM), 0.435; in assay [1] (first compound 2 µM), 0.468. The relative viability in assay [1] (first compound 6.325 µM) is 0.286.
